IC50 and Km data for two compounds are collected here from PMC3935456 (Journal of biomolecular screening, 2011).

In assay [1] the target is T1, LIM kinase 1 (LIMK1) (Homo sapiens, UniProt P53667). Briefly: Kinase Glo luciferase ATP-depletion assay with recombinant cofilin, […] ATP. In kind it is biochemical.
The target in assay [2] is T1, LIM kinase 1 (LIMK1). Kind of assay: apparent Km determination in luciferase ATP-depletion kinase assay with cofilin. In kind it is biochemical.

T1 sequence (P53667 339-604 limits assumed): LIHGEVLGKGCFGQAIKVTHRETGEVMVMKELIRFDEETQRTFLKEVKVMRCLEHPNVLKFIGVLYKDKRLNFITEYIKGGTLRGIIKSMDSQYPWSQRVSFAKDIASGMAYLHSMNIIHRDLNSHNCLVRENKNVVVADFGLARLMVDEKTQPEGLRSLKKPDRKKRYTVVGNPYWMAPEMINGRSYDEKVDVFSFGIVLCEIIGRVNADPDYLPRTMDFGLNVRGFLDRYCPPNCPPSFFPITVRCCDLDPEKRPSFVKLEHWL

`COc1c(C=O)c(O)cc2c1C(=O)c1ccccc1C2=O` [damnacanthal]: at LIM kinase 1 (LIMK1) [1], the IC50 – broadly, the concentration at which inhibition is half-maximal – was found to be 19 nM. For `Nc1ncnc2c1ncn2[C@@H]1O[C@H](COP(=O)(O)OP(=O)(O)OP(=O)(O)O)[C@@H](O)[C@H]1O` [ATP], the Km (in general, the concentration of substrate that gives half-maximal velocity) on LIM kinase 1 (LIMK1) [2] was in the range of 10 to 20 µM.
